Assay: Leaching test: 100 g fabric soaked in 10 liters stagnant distilled water, 3 days (72 hours)
Format: physicochemical
Settings: for Leaching of active ingredients: exhaust 80° C. 60 min, cured 180° C. 2 min, post wash
How it was run: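 Test and control fabrics were soaked together in a closed jar. Leached substances in the water were then determined by standard analytical methods.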

Structure (SMILES): CCCC1COC(Cn2cncn2)(c2ccc(Cl)cc2Cl)O1 (centres unmarked) [Propiconazole, propiconazole]
- Leaching of active ingredients (in ppm) (0.2% each in mixture (o.w.f), exhaust 80° C., 60 min, curing 180° C., 2 min, unwashed): 4 ppm
- Leaching of active ingredients (in ppm) (0.5% each in mixture (o.w.f), exhaust 80° C., 60 min, curing 180° C., 2 min, unwashed): 6 ppm
- Leaching of active ingredients (in ppm) (1.0% each in mixture (o.w.f), exhaust 80° C., 60 min, curing 180° C., 2 min, unwashed): 8 ppm
- Leeching in ppm (Exhaust + Wash + pad + Wash, exhaust 0.1% o.w.f. each in mixture, 1 gm/liter pad): 0.5 ppm
- Leeching in ppm (Exhaust + Wash + pad + Wash, exhaust 0.1% o.w.f. each in mixture, 5 gm/liter pad): 0.7 ppm
- Leeching in ppm (Exhaust + Wash + pad + Wash, exhaust 0.1% o.w.f. each in mixture, 10 gm/liter pad): 0.6 ppm
- Leeching in ppm (Exhaust + Wash + pad + Wash, exhaust 0.25% o.w.f. each in mixture, 1 gm/liter pad): 7 ppm
- Leeching in ppm (Exhaust + Wash + pad + Wash, exhaust 0.25% o.w.f. each in mixture, 5 gm/liter pad): 7 ppm
- Leeching in ppm (Exhaust + Wash + pad + Wash, exhaust 0.25% o.w.f. each in mixture, 10 gm/liter pad): 20 ppm
- Leeching in ppm (Exhaust + Wash + pad + Wash, exhaust 0.5 (% o.w.f) each in mixture, 1 gm/liter pad): 5 ppm
- Leeching in ppm (Exhaust + Wash + pad + Wash, exhaust 0.5 (% o.w.f) each in mixture, 5 gm/liter pad): 15 ppm
- Leeching in ppm (Exhaust + Wash + pad + Wash, exhaust 0.5 (% o.w.f) each in mixture, 10 gm/liter pad): 26 ppm
- Leeching in ppm (Exhaust + Wash + pad + Wash, exhaust 1.0% o.w.f. each in mixture, 1 gm/liter pad): 10 ppm
- Leeching in ppm (Exhaust + Wash + pad + Wash, exhaust 1.0% o.w.f. each in mixture, 5 gm/liter pad): 19 ppm
- Leeching in ppm (Exhaust + Wash + pad + Wash, exhaust 1.0% o.w.f. each in mixture, 10 gm/liter pad): 34 ppm
- Leeching in ppm (Exhaust + pad + Wash, exhaust 0.1% o.w.f. each in mixture, 1 gm/liter pad): 149 ppm
- Leeching in ppm (Exhaust + pad + Wash, exhaust 0.1% o.w.f. each in mixture, 5 gm/liter pad): 241 ppm
- Leeching in ppm (Exhaust + pad + Wash, exhaust 0.1% o.w.f. each in mixture, 10 gm/liter pad): 256 ppm
- Leeching in ppm (Exhaust + pad + Wash, exhaust 0.25% o.w.f. each in mixture, 1 gm/liter pad): 231 ppm
- Leeching in ppm (Exhaust + pad + Wash, exhaust 0.25% o.w.f. each in mixture, 5 gm/liter pad): 259 ppm
- Leeching in ppm (Exhaust + pad + Wash, exhaust 0.25% o.w.f. each in mixture, 10 gm/liter pad): 546 ppm
- Leeching in ppm (Exhaust + pad + Wash, exhaust 0.5 (% o.w.f) each in mixture, 1 gm/liter pad): 475 ppm
- Leeching in ppm (Exhaust + pad + Wash, exhaust 0.5 (% o.w.f) each in mixture, 5 gm/liter pad): 538 ppm
- Leeching in ppm (Exhaust + pad + Wash, exhaust 0.5 (% o.w.f) each in mixture, 10 gm/liter pad): 649 ppm
- Leeching in ppm (Exhaust + pad + Wash, exhaust 1.0% o.w.f. each in mixture, 1 gm/liter pad): 578 ppm
- Leeching in ppm (Exhaust + pad + Wash, exhaust 1.0% o.w.f. each in mixture, 5 gm/liter pad): 689 ppm
- Leeching in ppm (Exhaust + pad + Wash, exhaust 1.0% o.w.f. each in mixture, 10 gm/liter pad): 853 ppm
- Leeching in ppm (Exhaust + pad, exhaust 0.1% o.w.f. each in mixture, 1 gm/liter pad): 194 ppm
- Leeching in ppm (Exhaust + pad, exhaust 0.1% o.w.f. each in mixture, 5 gm/liter pad): 284 ppm
- Leeching in ppm (Exhaust + pad, exhaust 0.1% o.w.f. each in mixture, 10 gm/liter pad): 345 ppm
- Leeching in ppm (Exhaust + pad, exhaust 0.25% o.w.f. each in mixture, 1 gm/liter pad): 317 ppm
- Leeching in ppm (Exhaust + pad, exhaust 0.25% o.w.f. each in mixture, 5 gm/liter pad): 346 ppm
- Leeching in ppm (Exhaust + pad, exhaust 0.25% o.w.f. each in mixture, 10 gm/liter pad): 354 ppm
- Leeching in ppm (Exhaust + pad, exhaust 0.5 (% o.w.f) each in mixture, 1 gm/liter pad): 365 ppm
- Leeching in ppm (Exhaust + pad, exhaust 0.5 (% o.w.f) each in mixture, 5 gm/liter pad): 456 ppm
- Leeching in ppm (Exhaust + pad, exhaust 0.5 (% o.w.f) each in mixture, 10 gm/liter pad): 867 ppm
- Leeching in ppm (Exhaust + pad, exhaust 1.0% o.w.f. each in mixture, 1 gm/liter pad): 596 ppm
- Leeching in ppm (Exhaust + pad, exhaust 1.0% o.w.f. each in mixture, 5 gm/liter pad): 810 ppm
- Leeching in ppm (Exhaust + pad, exhaust 1.0% o.w.f. each in mixture, 10 gm/liter pad): 1456 ppm
- Leeching in ppm (Exhaust +Wash + pad, exhaust 0.1% o.w.f. each in mixture, 1 gm/liter pad): 89 ppm
- Leeching in ppm (Exhaust +Wash + pad, exhaust 0.1% o.w.f. each in mixture, 5 gm/liter pad): 154 ppm
- Leeching in ppm (Exhaust +Wash + pad, exhaust 0.1% o.w.f. each in mixture, 10 gm/liter pad): 232 ppm
- Leeching in ppm (Exhaust +Wash + pad, exhaust 0.25% o.w.f. each in mixture, 1 gm/liter pad): 184 ppm
- Leeching in ppm (Exhaust +Wash + pad, exhaust 0.25% o.w.f. each in mixture, 5 gm/liter pad): 215 ppm
- Leeching in ppm (Exhaust +Wash + pad, exhaust 0.25% o.w.f. each in mixture, 10 gm/liter pad): 321 ppm
- Leeching in ppm (Exhaust +Wash + pad, exhaust 0.5 (% o.w.f) each in mixture, 1 gm/liter pad): 369 ppm
- Leeching in ppm (Exhaust +Wash + pad, exhaust 0.5 (% o.w.f) each in mixture, 5 gm/liter pad): 413 ppm
- Leeching in ppm (Exhaust +Wash + pad, exhaust 0.5 (% o.w.f) each in mixture, 10 gm/liter pad): 578 ppm
- Leeching in ppm (Exhaust +Wash + pad, exhaust 1.0% o.w.f. each in mixture, 1 gm/liter pad): 469 ppm
- Leeching in ppm (Exhaust +Wash + pad, exhaust 1.0% o.w.f. each in mixture, 5 gm/liter pad): 574 ppm
- Leeching in ppm (Exhaust +Wash + pad, exhaust 1.0% o.w.f. each in mixture, 10 gm/liter pad): 657 ppm
- Leaching of active ingredients (in ppm) (exhaust 60° C., solution dosage 1% o.w.f, process time 60 min): 24 ppm
- Leaching of active ingredients (in ppm) (exhaust 60° C., solution dosage 1% o.w.f, process time 90 min): 12 ppm
- Leaching of active ingredients (in ppm) (exhaust 60° C., solution dosage 1% o.w.f, process time 120 min): 13 ppm
- Leaching of active ingredients (in ppm) (exhaust 60° C., solution dosage 1% o.w.f, process time 180 min): 13 ppm
- Leaching of active ingredients (in ppm) (exhaust 60° C., solution dosage 1% o.w.f, process time 240 min): 15 ppm
- Leaching of active ingredients (mixture 0.2% o.w.f. each): 0.3 ppm
- Leaching of active ingredients (mixture 0.5% o.w.f. each): 0.3 ppm
- Leaching of active ingredients (mixture 1% o.w.f. each): 0.9 ppm
- Leaching of active ingredients (in ppm) (exhaust 80° C., 1% o.w.f, 60 min, curing 170° C., curing dwell time 0.5 min): 28 ppm
- Leaching of active ingredients (in ppm) (exhaust 80° C., 1% o.w.f, 60 min, curing 170° C., curing dwell time 1.0 min): 24 ppm
- Leaching of active ingredients (in ppm) (exhaust 80° C., 1% o.w.f, 60 min, curing 170° C., curing dwell time 1.5 min): 21 ppm
- Leaching of active ingredients (in ppm) (exhaust 80° C., 1% o.w.f, 60 min, curing 170° C., curing dwell time 2.0 min): 15 ppm
- Leaching of active ingredients (in ppm) (exhaust 80° C., 1% o.w.f, 60 min, curing 170° C., curing dwell time 2.5 min): 17 ppm
- Leaching of active ingredients (in ppm) (exhaust 80° C., 1% o.w.f, 60 min, curing 170° C., curing dwell time 3.0 min): 17 ppm
- Leaching of active ingredients (in ppm) (exhaust 80° C., 1% o.w.f, 60 min, curing 180° C., curing dwell time 0.5 min): 24 ppm
- Leaching of active ingredients (in ppm) (exhaust 80° C., 1% o.w.f, 60 min, curing 180° C., curing dwell time 1.0 min): 12 ppm
- Leaching of active ingredients (in ppm) (exhaust 80° C., 1% o.w.f, 60 min, curing 180° C., curing dwell time 1.5 min): 13 ppm
- Leaching of active ingredients (in ppm) (exhaust 80° C., 1% o.w.f, 60 min, curing 180° C., curing dwell time 2.0 min): 3 ppm
- Leaching of active ingredients (in ppm) (exhaust 80° C., 1% o.w.f, 60 min, curing 180° C., curing dwell time 2.5 min): 13 ppm
- Leaching of active ingredients (in ppm) (exhaust 80° C., 1% o.w.f, 60 min, curing 180° C., curing dwell time 3.0 min): 13 ppm
- Leaching of active ingredients (in ppm) (exhaust 80° C., 1% o.w.f, 60 min, curing dwell time at 190° C. (title): 0.5 min): 23 ppm
- Leaching of active ingredients (in ppm) (exhaust 80° C., 1% o.w.f, 60 min, curing dwell time at 190° C. (title): 1.0 min): 12 ppm
- Leaching of active ingredients (in ppm) (exhaust 80° C., 1% o.w.f, 60 min, curing dwell time at 190° C. (title): 1.5 min): 12 ppm
- Leaching of active ingredients (in ppm) (exhaust 80° C., 1% o.w.f, 60 min, curing dwell time at 190° C. (title): 2.0 min): 10 ppm
- Leaching of active ingredients (in ppm) (exhaust 80° C., 1% o.w.f, 60 min, curing dwell time at 190° C. (title): 2.5 min): 27 ppm
- Leaching of active ingredients (in ppm) (exhaust 80° C., 1% o.w.f, 60 min, curing dwell time at 190° C. (title): 3.0 min): 34 ppm
